Data published in patent US20260176285A1, “SALT OF DIOXANE QUINOLINE COMPOUND, CRYSTAL FORM THEREOF, PREPARATION METHODS THEREFOR AND USES THEREOF” (Beijing Scitech-MQ Pharmaceuticals Limited, priority 2022, published 2026).

Assays:
Assay type in all cases: physicochemical
[1] = Hygroscopicity by dynamic moisture sorption (DVS); settings: DVS, listed as Di-p-toluenesulfonate salt crystal form A-IV
Experimental: Dynamic moisture sorption (DVS): The curves were collected on a DVS Intrinsic of SMS (Surface Measurement Systems). At 25° C., the humidity range was 0% RH-95% RH, the step was 10% (the last step was 5%), and the dm/dt was 0.002%/min.
The hygroscopicity of the free compound of formula (I), mucate salt crystal form A-I, p-toluenesulfonate salt crystal forms A-II and B-III, di-p-toluenesulfonate salt crystal form A-IV and phosphate salt crystal form A-V was evaluated by dynamic moisture sorption instrument (DVS). Starting from 0% relative humidity (0% RH), the test collected the mass change percentage of the samples under constant temperature of 25° C. with humidity changes (0% RH-95% RH-0% RH).

[2] = Dynamic solubility in water, SGF, FaSSIF and FeSSIF; design: S (dynamic solubility): unit not given here; settings: listed as Di-p-toluenesulfonate salt crystal form A-IV; for S (dynamic solubility): 37° C., feed 10 mg/mL
Experimental: Biological solvent Preparation • 1. […] 67.5 μL of concentrated hydrochloric acid (12 M) was added and the mixture was adjusted to a pH value of 1.8 with 1 M hydrochloric acid or 1 M NaOH solution. Purified water was added to make up to volume. • 2. Preparation of Fasted State Simulated Intestinal Fluid (FaSSIF): 0.17 g of anhydrous NaH2PO4, 0.021 g of NaOH, and 0.31 g of NaCl were weighed into a 50-mL volumetric flask. About 48 mL of purified water was added to dissolve the mixture completely, and the solution was adjusted to a pH value of 6.5 with 1 M hydrochloric acid or 1 M NaOH solution. Purified water was added to make up to volume. 0.11 g of SIF powder was added and dissolved completely. • 3. Preparation of Fed State Simulated Intestinal Fluid (FeSSIF): 0.41 mL of glacial acetic acid, 0.20 g of NaOH and 0.59 g of NaCl were weighed into a 50-mL volumetric flask. About 48 mL of purified water was added to dissolve the mixture completely, and the solution was adjusted to a pH value of 5.0 with 1 M hydrochloric acid or 1 M NaOH solution. Purified water was added to make up to volume. 0.56 g of SIF powder was added and dissolved completely.
The dynamic solubility of the free state, the mucate salt crystal form A-I, the p-toluenesulfonate salt crystal form A-II, the di-p-toluenesulfonate salt crystal form A-IV and the phosphate salt crystal form A-V of the compound of formula (I) in water and three biological solvents was evaluated.
The samples at each time point were centrifuged and filtered (0.45 μm PTFE filter head), and the HPLC concentration and pH value of the filtrate were determined.

[3] = Solid-state stability evaluation (XRPD, HPLC); settings: listed as Di-p-toluenesulfonate salt crystal form A-IV
Experimental: The following 6 test samples were placed under 25° C./60% RH and 40° C./75% RH conditions for 1 week, and then the physical and chemical stability of the samples was tested by XRPD and HPLC.
At the same time, after the p-toluenesulfonate salt crystal form A-II and crystal form B-III solids were placed at 80° C. for 24 hours, the physical and chemical stability of the samples were tested by XRPD and HPLC.

SMILES: O=C(Nc1ccc(F)cc1)C1(C(=O)Nc2ccc(Oc3ccnc4cc(OCCCN5CCOCC5)c5c(c34)OCCO5)c(F)c2)CC1 [Example 4, N-(3-fluoro-4-((5-(3-morpholinopropoxy)-2,3-dihydro-[1,4]dioxano[2,3-f]quinolin-10-yl)oxy)phenyl)-N-(4-fluorophenyl)cyclopropane-1,1-dicarboxamide]
- Moisture adsorption (25° C./80% RH) ([1]; 25° C./80% RH): 3.70%
- Hygroscopicity ([1]; 25° C.): Hygroscopic
- S (dynamic solubility) ([2]; FaSSIF, 1 hour): 0.035
- pH of the filtrate ([2]; FaSSIF, 1 hour): 5.6
- S (dynamic solubility) ([2]; FaSSIF, 2 hours): 0.080
- pH of the filtrate ([2]; FaSSIF, 2 hours): 5.2
- S (dynamic solubility) ([2]; FaSSIF, 4 hours): 0.16
- pH of the filtrate ([2]; FaSSIF, 4 hours): 5.0
- S (dynamic solubility) ([2]; FaSSIF, 24 hours): 0.20
- pH of the filtrate ([2]; FaSSIF, 24 hours): 5.0
- S (dynamic solubility) ([2]; FeSSIF, 1 hour): 1.6
- pH of the filtrate ([2]; FeSSIF, 1 hour): 4.9
- S (dynamic solubility) ([2]; FeSSIF, 2 hours): 1.8
- pH of the filtrate ([2]; FeSSIF, 2 hours): 4.8
- S (dynamic solubility) ([2]; FeSSIF, 4 hours): 1.4
- pH of the filtrate ([2]; FeSSIF, 4 hours): 4.8
- S (dynamic solubility) ([2]; FeSSIF, 24 hours): 1.0
- pH of the filtrate ([2]; FeSSIF, 24 hours): 4.9
- S (dynamic solubility) ([2]; H2O, 1 hour): 2.9
- pH of the filtrate ([2]; H2O, 1 hour): 3.7
- S (dynamic solubility) ([2]; H2O, 2 hours): 2.9
- pH of the filtrate ([2]; H2O, 2 hours): 3.9
- S (dynamic solubility) ([2]; H2O, 4 hours): 2.8
- pH of the filtrate ([2]; H2O, 4 hours): 3.8
- S (dynamic solubility) ([2]; H2O, 24 hours): 2.7
- pH of the filtrate ([2]; H2O, 24 hours): 3.8
- S (dynamic solubility) ([2]; SGF, 1 hour): 4.5
- pH of the filtrate ([2]; SGF, 1 hour): 1.9
- S (dynamic solubility) ([2]; SGF, 2 hours): 4.6
- pH of the filtrate ([2]; SGF, 2 hours): 1.9
- S (dynamic solubility) ([2]; SGF, 4 hours): 4.3
- pH of the filtrate ([2]; SGF, 4 hours): 1.9
- S (dynamic solubility) ([2]; SGF, 24 hours): 4.2
- pH of the filtrate ([2]; SGF, 24 hours): 1.9
- Purity ([3]; 25° C./60% RH, 1 week): 99.19 area %
- Purity/initial purity ([3]; 25° C./60% RH, 1 week): 100.0%
- Purity ([3]; 40° C./75% RH, 1 week): 99.25 area %
- Purity/initial purity ([3]; 40° C./75% RH, 1 week): 100.1%
- Purity ([3]; Starting): 99.18 area %
